Source: the CheMixHub viscosity set

Assay: xn = mol fraction of the nth substance listed

NCC(=O)NCC(=O)NCC(=O)O + O
viscosity [mPa·s]
Settings	298.15 K	303.15 K	308.15 K	313.15 K	318.15 K
100 kPa, x1 = 0.0008998	0.9044	0.8108	0.7322	0.6656	0.6079
100 kPa, x1 = 0.001798	0.9128	0.8191	0.7406	0.6738	0.6157
100 kPa, x1 = 0.002695	0.9213	0.8272	0.7481	0.6812	0.6229
100 kPa, x1 = 0.00359	0.9287	0.8347	0.7552	0.6885	0.6298
100 kPa, x1 = 0.004483	0.9364	0.8418	0.7623	0.6953	0.6366
100 kPa, x1 = 0.005375	0.9426	0.8482	0.7691	0.7018	0.6429
100 kPa, x1 = 0.006266	0.95	0.8548	0.7757	0.7082	0.6492
100 kPa, x1 = 0.007154	0.9566	0.8615	0.7818	0.7147	0.6552
101 kPa, x1 = 0.000199	0.8947	–	0.7233	–	0.5994
101 kPa, x1 = 0.000396	0.8988	–	0.7269	–	0.6027
101 kPa, x1 = 0.0006084	0.9032	–	0.7307	–	0.6058
101 kPa, x1 = 0.0007854	0.9075	–	0.7343	–	0.6087
101 kPa, x1 = 0.001106	0.9149	–	0.7403	–	0.6138
101 kPa, x1 = 0.001839	0.9325	–	0.7547	–	0.6255
101 kPa, x1 = 0.002563	0.9511	–	0.7694	–	0.637
101 kPa, x1 = 0.003356	0.9729	–	0.7857	–	0.6495
101 kPa, x1 = 0.0046	1.01	–	0.8123	–	0.6694

CCOCCO + CC#N
viscosity [mPa·s], 101.33 kPa
Settings	x1 = 0.1016	x1 = 0.2016	x1 = 0.2865	x1 = 0.4004	x1 = 0.5026	x1 = 0.6026	x1 = 0.7122	x1 = 0.7978	x1 = 0.8997
298.15 K	0.458	0.546	0.638	0.79	0.946	1.128	1.346	1.524	1.786
303.15 K	0.389	0.461	0.535	0.655	0.781	0.921	1.075	1.236	1.435
308.15 K	0.37	0.435	0.501	0.608	0.721	0.845	0.978	1.122	1.295

COCc1ccccc1 + CCCCCOC(C)=O
Settings	viscosity [mPa·s]
298.15 K, 101 kPa, x2 = 0.5	0.8479

CCOCCO + NCCO
viscosity [mPa·s], 101 kPa
Settings	293.15 K	298.15 K	303.15 K	308.15 K	313.15 K	318.15 K	323.15 K
x2 = 0.141	2.898	2.544	2.246	1.998	1.786	1.605	1.449
x2 = 0.387	5.417	4.594	3.935	3.401	2.963	2.6	2.297
x2 = 0.596	9.217	7.588	6.312	5.319	4.527	3.89	3.371
x2 = 0.775	14.17	11.37	9.259	7.642	6.388	5.402	4.614
x2 = 0.93	20.26	15.94	12.77	10.37	8.539	7.122	6.005

CNCCO + COCCO
viscosity [mPa·s], 101.3 kPa
Settings	293.15 K	298.15 K	303.15 K	308.15 K	313.15 K	318.15 K	323.15 K
x1 = 0.101	2.086	1.866	1.677	1.516	1.375	1.254	1.147
x1 = 0.303	3.283	2.869	2.523	2.234	1.988	1.78	1.601
x1 = 0.403	3.985	3.444	3	2.632	2.324	2.064	1.843
x1 = 0.503	4.964	4.234	3.644	3.163	2.766	2.435	2.156
x1 = 0.703	7.364	6.129	5.157	4.384	3.762	3.256	2.839
x1 = 0.901	10.98	8.877	7.286	6.054	5.088	4.323	3.709

CC(C)CCO + CC(C)CC(C)(C)C
298.15 K, 101 kPa
Settings	viscosity [mPa·s]
x2 = 0.0685	3.063
x2 = 0.1336	2.496
x2 = 0.1409	2.428
x2 = 0.2215	1.908
x2 = 0.2866	1.576
x2 = 0.311	1.471
x2 = 0.352	1.326
x2 = 0.4007	1.178
x2 = 0.4038	1.175
x2 = 0.4505	1.051
x2 = 0.4937	0.967
x2 = 0.5321	0.896
x2 = 0.6132	0.772
x2 = 0.6488	0.723
x2 = 0.7255	0.642
x2 = 0.782	0.595
x2 = 0.818	0.564
x2 = 0.857	0.544
x2 = 0.9105	0.512
x2 = 0.9545	0.494

CC(C)CCO + ClCCCl
viscosity [mPa·s], 101 kPa
Settings	x1 = 0.1272	x1 = 0.2201	x1 = 0.3264	x1 = 0.4302	x1 = 0.5765	x1 = 0.6639	x1 = 0.8049	x1 = 0.888
303.15 K	0.743	0.797	0.9054	1.029	1.302	1.532	2.081	2.51
313.15 K	0.6478	0.6865	0.7649	0.8579	1.065	1.23	1.619	1.91
323.15 K	0.5786	0.603	0.665	0.7365	0.8917	1.015	1.309	1.507
